Experimental data taken from patent publication US8148387B2, “AKT and P70 S6 kinase inhibitors” (Eli Lilly and Company, priority 2008, dated 2012).

How the values were obtained:
AKT1 = target: T1, AKT1 (Homo sapiens, UniProt P31749); assay: AKT1 In Vitro Enzyme Assay (Transcreener Kinase ADP-FP); assay type: biochemical; conditions: 20 micromolar ATP; read-out: IC50 against AKT1
T1 construct: His tag; host or cells: insect cells
Description: Compound IC50 values against AKT1 target are determined using the AKT1 Transcreener™ Kinase ADP-FP Assay. This assay assesses the activity of AKT1 in the presence of compound inhibitors by measuring the concentration of ADP formed in a kinase reaction. The kinase reactions (25 μL reaction volumes) are performed in 96-well half-area black polystyrene plates. ATP is added to start the reactions. Final reaction conditions are 56 millimolar HEPES pH 7.4, 0.008% TRITON™ X-100, 5 millimolar magnesium chloride, 30 micromolar Crosstide peptide, 20 micromolar ATP, hAKT1 Human Recombiant, V-AKT Murine Thymoma Viral Oncogene Homolog 1, histidine-tagged, expressed in insect cells, 4% DMSO and serial dilutions of compound (diluted 1:3 from 20,000 to 1 nanomolar). […] Quenched reactions are incubated for 4-16 hours, and then read in a Tecan Ultra Evolution plate reader in Fluorescence Polarization mode using polarizing filters of Ex612nm and Em633nm wavelength. […] The IC50 value for each compound is derived using percent inhibition data which is calculated using the micromolar ADP reaction data relative to on-plate controls (active enzyme versus 100 millimolar inhibited enzyme controls). […]

[1] = system: phosphorylated S6 ribosomal protein serine 240/244 (pS6); assay: AlphaScreen SureFire detection of pS6 in U87MG cells; assay type: cell-based; conditions: Homo sapiens, U-87 MG, 1 hour
Description: (§1) The effect of compounds on the formation of endogenous phosphorylated S6 ribosomal protein serine 240/244 (pS6) and phosphorylated GSK3β serine 9 (pGSK3β) are measured using the AlphaScreen SureFire® for either pS6 (TGR Biosciences, TGRS6P2S10K) or pGSK3β(TGRGBS10K). This is a homogeneous assay format using immuno-sandwich capture of the phosphorylated analyte followed by detection using antibody-coated Alphascreen beads to generate an amplified signal.
(§2) U87MG cells are maintained in U87MG growth medium consisting of DMEM supplemented with 10% Fetal bovine serum (FBS), 1% Nonessential amino acids and 1% sodium pyruvate. For the assay, cells are harvested by standard procedures and then counted using Vi-Cell. Cells (50,000/well) are plated in 100 μL of U87MG growth medium into Costar #3596 96 well plates. […]
(§3) On the day of the assay, cells are treated with 20 μL/well compound diluted in media containing 6% DMSO. […] The plate is sealed with foil, incubated at RT for 4 hours with gentle shaking and then read on Perkin Elmer EnVision equipped with a TurboModule using standard AlphaScreen® settings (Ex680nm and Em520-620nm). The percent inhibition determined from controls on each plate and ten-point compound concentration data are then fit to a four-parameter logistic equation using ACTIVITYBASE 4.0 (Assay Guidance Manual Version 5.0, 2008, Eli Lilly and Company and NIH Chemical Genomics Center).

[2] = system: phosphorylated GSK3β serine 9 (pGSK3β); assay: AlphaScreen SureFire detection of pGSK3β in U87MG cells; assay type: cell-based; conditions: Homo sapiens, U-87 MG, 1 hour
Description: as §1, §2, §3

pAKT S473 = assay: p70 S6K/AKT In Vivo Target Inhibition, U87MG xenograft, pAKT; design: species or system athymic nude mice; conditions: Mus musculus, U-87 MG, IV Dose 12.5 mpk, U87MG tumors
Description: U87MG human glioblastoma cells (5×106) are subcutaneously implanted into the flank of athymic nude mice in 0.2 mL of matrigel. Two weeks post-implantation, mice are dosed orally or parenterally according to a time course, single dose/single time point, or dose response protocol for the determination of TMED50 (threshold minimum effective dose). Tumors are flash frozen at harvest and blood is collected for the determination of parent compound plasma exposure and the calculation of TMEC50 (threshold minimum effective concentration) in the case of dose response studies. Tumors or tissues are pulverized in liquid N2 and lysed in 400 μL of XY Lysis Buffer (10 μg/mL Leupeptin, 10 μg/mL Trypsin-Chymotrypsin Inhibitor, 10 μg/mL Tosyl phenyl-alanyl chloromethyl ketone, 10 μg/mL Aprotinin, 60 mM Beta-Glycerol Phosphate, 1% Triton X100, 25 mM Tris pH 7.5, 2.5 mM Pyrophosphate, 150 mM NaCl, 2 mM p-tosyl-L-arginine methyl ester, 15 mM para-nitrophenyl phosphate, 5 mM Benzamidine, 1 mM Na Vanadate, 10 mM NaF, 50 μg/mL phenyl-methane sulfonyl fluoride, 1 mM 1,4-Dithiothreitol (DTT), 15 mM EDTA pH 8.0, 5 mM EGTA pH 8.0, 1 μM Microcystin, 1 μM Okadaic Acid, and 1 Roche Complete protease inhibitor mini-tablet per 10 mL) using Lysing Matrix D tubes (MP Biomedicals, Solon, Ohio, cat#6913-500) and a BIO101 Thermo Savant Fast Prep FP12. Lysates are aliquoted and either assayed immediately or stored at −80° C. for later testing. In Vivo Target Inhibition of p70 S6K and AKT is measured utilizing Meso Scale Discovery (Gaithersburg, Md.) ELISA technology to assess effects on phosphorylation of the serine 240/244 site of the downstream effector S6RP. Phosphorylation of p70 S6K(T389), AKT(5473) and GSK3β(S9) is also assessed using this technology in a multiplex format. In summary, 20 μg of lysate is added to carbon electrode containing 96-well plates pre-spotted with the appropriate capture antibodies. The protein of interest is probed using a ruthenium labeled detection antibody. Upon the passage of current over the electrode in the presence of read buffer containing the co-reactant TPA, electro-chemiluminescence results in the generation of light which is quantified and recorded using the MSD Sector 6000 instrument. For each study, percent inhibitions are calculated relative to the vehicle control group and ANOVA analysis is performed using the JMP software package for the determination of statistical significance.

T1 sequence (P31749 whole entry): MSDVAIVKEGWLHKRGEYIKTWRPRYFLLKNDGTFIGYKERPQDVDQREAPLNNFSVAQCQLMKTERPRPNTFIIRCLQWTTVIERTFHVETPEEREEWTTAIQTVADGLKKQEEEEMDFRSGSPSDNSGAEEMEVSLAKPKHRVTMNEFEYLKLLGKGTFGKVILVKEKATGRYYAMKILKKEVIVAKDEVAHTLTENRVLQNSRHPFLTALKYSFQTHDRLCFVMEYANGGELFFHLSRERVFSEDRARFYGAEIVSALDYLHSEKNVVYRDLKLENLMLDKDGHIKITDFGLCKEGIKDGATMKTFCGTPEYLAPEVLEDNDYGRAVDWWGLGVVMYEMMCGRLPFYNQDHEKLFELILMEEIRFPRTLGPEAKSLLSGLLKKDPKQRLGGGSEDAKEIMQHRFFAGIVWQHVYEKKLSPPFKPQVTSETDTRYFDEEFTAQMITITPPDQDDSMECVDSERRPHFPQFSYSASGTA

## CN(C)CCn1cc(-c2ccc(F)c(C(F)(F)F)c2)nc1C1CCN(c2ncnc3c2C(C)(C)C(=O)N3)CC1 [Example 31]
AKT1
  IC50: 6 nM
[1]
  IC50: 65 nM
[2]
  IC50: 331 nM
pAKT S473; 1 hr post IV dose
  inhibition at 12.5 mg/kg: 4%
pAKT S473; 2 hr post IV dose
  inhibition at 12.5 mg/kg: -22.3%
pAKT S473; 4 hr post IV dose
  inhibition at 12.5 mg/kg: -19.2%
pAKT S473; 6 hr post IV dose
  inhibition at 12.5 mg/kg: -26.3%
pAKT S473; 8 hr post IV dose
  inhibition at 12.5 mg/kg: -9.4%
pAKT S473; 24 hr post IV dose
  inhibition at 12.5 mg/kg: 22.6%
